Results published in patent US6818446B2, “Compositions and methods for the analysis of mucin gene expression and identification of drugs having the ability to inhibit mucin gene expression” (The Regents of the University of California, priority 2001, dated 2004).
Entries after “also recorded” stand apart in the source; their conditions may differ.

Key:
MUC5B message = experiment: Northern blot analysis of MUC5B message in primary TBE cell cultures; details: primary human TBE cells, presence vs absence of 30 nM retinoic acid
MUC5B-b2 promoter = experiment: Effect of culture conditions and retinoic acid on MUC5B-b2 promoter-reporter activity in primary human TBE cells; format: cell-based; details: retinoic acid 30 nM
Experimental: For studying the effects of culture conditions on the promoter-reporter gene activity, primary human TBE cultures were grown in 60 mm dishes and transfected with 1 μg of MUC5B promoter-luciferase construct DNA and 0.5 μg pSV-β-gal expression vector. One day following the transfection, cultures were passaged into either 35 mm tissue culture dishes or into collagen gel-coated 25 mm Transwell™ chambers (Coming-COSTAR Catalog Number 3506). Additionally, the cultures were maintained either in the absence or presence of supplemental all-trans-retinoic acid (30 nM). For Transwell™ cultures, chambers were maintained in an air-liquid interface for an additional three days. Cell extracts were prepared and luciferase and β-galactosidase activities were analyzed as described above. For each transfection, relative luciferase activity was expressed after normalization for β-galactosidase activity. The results are presented as a mean of relative activities from at least triplicate dishes, and data is collected from at least three independent experiments. Activity is expressed as units of luciferase activity per unit of β-gal activity (units/beta-gal). […] Results are expressed as “fold increase” of luciferase activity, comparing RA-treated and RA-untreated cultures, where the activity of the RA untreated culture is set to 1. […]

MUC5B promoter [1] = experiment: MUC5B-b2 luciferase reporter activity in primary TBE cultures derived from transgenic mice; format: cell-based; details: transgenic mouse TBE cells; cytokine 10 ng/ml, 7 days
Experimental: The transgenic mice described in EXAMPLE 9 were used to isolate TBE cells, which were maintained in culture. The TBE cells were maintained in three culture conditions, which were control (no supplement), with interleukin-6 (IL-6) at a concentration of 10 ng/ml or with IL-17 at a concentration of 10 ng/ml. The cells were maintained in the presence of the cytokines for 7 days, harvested and cell extracts were prepared as described in EXAMPLE 8. The luciferase activity in each cell extract was determined, and normalized for total protein concentration of the extract samples.

MUC5B promoter [2] = experiment: Luciferase activity in stably transfected HBE1 cells carrying the MUC5B promoter reporter; format: cell-based, human; details: cytokine 10 ng/ml
Experimental: Experimental—The established cell line HBE1 was cultured in 35 mm dishes and grown to 60-80% confluence. These cells were cotransfected with either MUC-5B reporter construct and a second plasmid encoding the neomycin-resistance (neo) selectable marker. The chimeric reporter plasmids used in the transfections were purified using QIAGEN® plasmid isolation kits, and the cotransfections were done using Roche FuGENE 6™ transfection reagent (Roche Molecular Biochemicals, Indianapolis, Ind.) according to the manufacturer's instructions. In these transfections, 2.5 μg of MUC5B reporter plasmid DNA and 0.5 μg of the neomycin resistance marker plasmid per 35 mm culture dish were used for each transfection.
Following the cotransfection, cells were cultured for an additional 48 to 72 hours. At this time, the medium was replaced with fresh medium containing the neomycin analogue G-418 at a concentration of 100 μg/ml. The selection was maintained for approximately 21 days, at which time clones of resistant transfected cells were replated and maintained as continuous lines. Cell extracts were prepared and luciferase activity quantitated exactly as described in EXAMPLE 8, with the exception that cell extracts were normalized for total protein content, and not β-galactosidase activity. In addition, these cells were cultured in the absence or presence of IL-6 (10 ng/ml) or IL-17 (10 ng/ml).

Compound	levels of MUC5B message in BI and BICG cultures (MUC5B message; Transwell chambers (BI) or collagen gel-coated Transwell chambers (BICG))	levels of MUC5B message in TC and CG cultures (MUC5B message; tissue culture dishes (TC) or collagen gel coated dishes (CG))	MUC5B-b2 reporter gene activity, RA-treated vs RA-untreated, tissue culture dishes (TC) (MUC5B-b2 promoter; TC)	MUC5B-b2 reporter gene activity, fold increase RA-treated vs RA-untreated, BICG conditions (MUC5B-b2 promoter; collagen gel-coated Transwell chambers, air-liquid interface)	MUC5B promoter activity (luciferase normalized for total protein) vs control without interleukin (MUC5B promoter [1])	luciferase reporter activity in presence vs absence of cytokine (MUC5B promoter [2])
CC1=C(/C=C/C(C)=C/C=C/C(C)=C/C(=O)O)C(C)(C)CCC1 [retinoic acid, all-trans-retinoic acid]	greatly enhanced	unaffected	not affected	five-fold	–	–
IL-6: pro-inflammatory cytokine interleukin-6 added to cell cultures	–	–	–	–	significant upregulation	strongly induced; also recorded: upregulated
IL-17: pro-inflammatory cytokine IL-17 added to cell cultures	–	–	–	–	significant upregulation	strongly induced; also recorded: upregulated
